pIC50: −log10 of the molar value. Read-outs that look alike come from different tables or passages of the source. Blank lines part the entries; values can stand above or below the molecule they belong to.
Key:
[1] = target: T1, binding of Paxillin to the α4 tail protein (Homo sapiens, UniProt P13612+P49023); assay: Integrin tail affinity chromatography binding study
T1 construct: The design and production of recombinant cytoplasmic α4 tail polypeptide have been described; made in house; host or cells: E. coli BL21(DE3)pLysS for the α4 tail
T1 sequence (P13612 1002-1032 limits assumed): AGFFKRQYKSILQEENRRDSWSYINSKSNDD
T1 sequence (P49023 1-557 isoform P49023-2): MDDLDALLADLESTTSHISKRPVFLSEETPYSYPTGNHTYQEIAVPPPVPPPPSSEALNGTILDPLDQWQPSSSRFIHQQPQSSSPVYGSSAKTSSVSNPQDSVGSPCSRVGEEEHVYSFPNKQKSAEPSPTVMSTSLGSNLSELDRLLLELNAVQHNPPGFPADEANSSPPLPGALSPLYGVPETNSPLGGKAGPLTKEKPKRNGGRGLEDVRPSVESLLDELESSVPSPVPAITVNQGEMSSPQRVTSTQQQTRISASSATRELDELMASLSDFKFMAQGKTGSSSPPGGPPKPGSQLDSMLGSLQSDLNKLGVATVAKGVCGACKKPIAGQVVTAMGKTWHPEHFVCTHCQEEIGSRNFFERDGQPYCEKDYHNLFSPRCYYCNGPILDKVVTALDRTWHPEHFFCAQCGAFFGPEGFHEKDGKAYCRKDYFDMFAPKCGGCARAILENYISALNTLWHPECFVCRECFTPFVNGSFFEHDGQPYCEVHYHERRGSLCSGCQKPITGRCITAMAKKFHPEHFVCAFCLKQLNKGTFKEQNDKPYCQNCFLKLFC
Method: FIG. 6 in two parts as 6A and 6B includes results of an affinity chromatography binding study (6A) and scanning densitometry results shown in graphical form for the bound Paxillin (6B). In 6A, recombinant HA-tagged GST-Paxillin (100 nM) was added to Ni^2+-charged resin loaded with α4 tail protein in the absence (lane a) or presence of compound 11-A7B7C7 (lane b, 5 μM; lane c, 25 μM; lane d, 100 μM) or compound 11-A6B6C6 (lane e, 25 μM). Bound protein was collected and separated by SDS-PAGE under reducing conditions, transferred to a nitrocellulose membrane, and stained with HA-tag-specific antibody, 12CA5. In 6B, bound Paxillin was quantified by scanning densitometry of those immunoblots using the NIH Image program. The depicted results are representative from two studies.
In order to confirm the effectiveness and selectivity of Compound 11-A7B7C7 at inhibiting Paxillin/α4 binding, a series of binding studies was conducted using affinity chromatography techniques [Liu S et al. (1999) Nature 402, 676-681; and Pfaff et al. (1998) J. Biol. Chem. 273, 6104-6109]. […] Bound protein was collected and separated by electrophoresis and analyzed by immunoblotting.
Integrin tail affinity chromatography was performed as described [Rose (2001) J. Immunol. 167, 2824-2830]. […]

[2] = target: T2, Paxillin/α4 binding (immobilized His-tagged α4 tail, soluble recombinant Paxillin) (Homo sapiens, UniProt P13612+P49023); assay: Immobilized Paxillin/α4 binding assay (ELISA); conditions: for pIC50: read-out: IC50 of Paxillin/α4 binding inhibition
T2 construct: The design and production of recombinant cytoplasmic α4 tail polypeptide have been described; made in house; host or cells: E. coli BL21(DE3)pLysS for the α4 tail
T2 sequence (P13612 1002-1032 limits assumed): as the sequence (P13612 1002-1032 limits assumed) above
T2 sequence (P49023 1-557 isoform P49023-2): as the sequence (P49023 1-557 isoform P49023-2) above
Method: FIG. 4 is a schematic representation of the high throughput screening by ELIZA used herein in which the α4 tail is coated onto a Ni-NTA microtiter plate (a), Paxillin is permitted to bind to α4 (b), first antibody is added (anti-Paxillin) (c), second antibody is added (HRP-conjugated, anti-mouse) (d), and Pax/α4 binding efficiency is measured by detection at 490 nm (e). For binding inhibition, compounds were added during Paxillin incubation (step b). […], zero % inhibition was measured from incubation with Paxillin and no compound.
Initially, roughly 40,000 compounds were screened in approximately 2000 wells (most as a mixture of 10 compounds, 50 μM total concentration) in an ELISA assay using an immobilized His-tagged α4 tail [Pfaff et al. (1998) J. Biol. Chem. 273, 6104-6109] and examining the binding inhibition of soluble recombinant Paxillin [Salgia et al. (1995) J. Biol. Chem. 270, 5039-5047] (FIG. 3).
Paxillin/α4 binding assays were performed as follows. Ni-NTA HisSorb microtiter strips (Qiagen) were coated overnight at 4° C. with purified α4 tail integrin (5 μg/ml, 100 μl per well) in PBS buffer (8 mM Na2HPO4, 1.5 mM KH2PO4, 135 mM NaCl, 2.5 mM KCl [pH 7.4]) supplemented with heat-denatured BSA (0.2%). The plates were washed three times with PBS buffer to remove unbound integrin, blocked with 150 μl of heat-denatured 1% BSA (denatured at 85° C. for 30 minutes and supplemented with 0.05% sodium azide) for 1 hour at room temperature, and washed again three times with PBS buffer.
Purified Paxillin in binding buffer (10% DMSO, 0.2% BSA in PBS buffer) was added to the wells at a concentration of 5 μg/ml in the presence or absence of compounds (1 mM DMSO stock solutions). […] As a control, blocked wells without integrin were examined for binding. After 1 hour at room temperature, the wells were washed three times with PBS buffer, incubated with first antibody (12CA5 ascites, 1/10000 in PBS plus 1% BSA, 100 μL) for 1 hour at room temperature, then with second antibody (100 μl HRP-conjugated anti-mouse [Biosource] in PBS buffer plus 1% BSA) for 1 hour at room temperature. Each well was treated with 50 μl of substrate solution (4 mg o-phenylenediamine, 4 μl of 30% H2O2, 80 mM citrate phosphate [pH 5]) and stopped after 10 minutes at room temperature with 50 μl H2SO4 (2 N). Binding was quantitated on a vmax kinetic microplate reader (Molecular Devices) at 490 nm. Zero % inhibition control was measured with Paxillin and no compound, and 100% inhibition control (background) was measured with no Paxillin and no compound. Each well was duplicated and percent inhibition was averaged.

[3] = tested on: integrin α4β1-mediated migration of Jurkat T cells; assay: Cell migration assay (modified Boyden chamber); assay type: cell-based; conditions: Homo sapiens
Method: Cell migration was assayed in a modified Boyden chamber assay system as previously described [Rose et al. (2001) J. Immunol. 167, 2824-2830]. […] 167, 2824-2830]. Transwells (Costar, Corning) polycarbonate membranes containing 3.0 μm pores were coated with 5 μg/ml recombinant soluble VCAM-1. Membranes were blocked with 2% BSA in PBS for 30 minutes at room temperature. 2.0×10^5 cells in RPMI-1640 containing the indicated concentration of the compound and a final concentration of 0.1% DMSO were added to the top chamber. SDF-1α (R&D Systems) at a final concentration of 15 ng/ml was added to the bottom chamber. Cells were permitted to migrate for 4 hours at 37° C. Cells in the bottom chamber were enumerated with a hemocytometer, and data are expressed as percent inhibition of migration. Depicted are the mean and range of duplicate determinations from one of two studies with similar results.
The Jurkat E6-1 T leukemic cell line was purchased from American Type Culture Collection (ATCC), Rockville, Md. and cultured in RPMI-1640 (Biowhitaker Inc, Walkersville, Md.) supplemented with 10% FCS (Biowhitaker Inc), 1% glutamine, 50 units/ml penicillin, and 50 μg/ml streptomycin (Sigma Chemical, St Louis, Mo.).
Cell migration was assayed in a modified Boyden chamber assay system. […]

[4] = read-out: Inhibition of Pax/α4 binding (% at 1 μM)

Molecule: COC(=O)c1cc2c3c(ccc2[nH]1)N(C(=O)c1cc2c4c(ccc2[nH]1)N(C(=O)c1cc2c5c(ccc2[nH]1)N(C(=O)CCCN(C)C)CC5)CC4)CC3 [Compound 11-A7B7C7, DMABA-CDPI3-OMe]
- Binding of Paxillin to the α4 tail protein ([1]; GST-Paxillin 100 nM, immunoblot): markedly reduced
- Quantification of bound Paxillin (scanning densitometry) ([1]; concentrations as low as 5 μM): near background levels
- inhibition at 1 µM ([2]; 1 μM, read-out: Inhibition (%) of α4/Paxillin Binding by Deconvoluted Samples of 11-AxByCz): 76%
- pIC50 [2]: 6.52
- inhibition at 1 µM [2, 4]: 78%
- inhibition at 15 µM ([3]; Jurkat, highest possible dose, 15 μM, read-out: Maximum inhibition of migration): ~70%
- pIC50 ([3]; Jurkat T cells, VCAM-1 coated membranes, SDF-1α, 4 hours, read-out: IC50 of inhibition of α4β1-mediated cell migration): ~5.00

- Inhibition of Pax/α4 binding (% at 1 μM) ([2]; 1 μM): 3%
Molecule: COC(=O)c1cc2c3c(ccc2[nH]1)N(C(=O)OC(C)(C)C)CC3 [Compound 15, Boc-CDPI-OMe]

- Inhibition of Pax/α4 binding (% at 1 μM) ([2]; 1 μM): 19%
Molecule: COC(=O)c1cc2c3c(ccc2[nH]1)NCC3 [Compound 16, H-CDPI-OMe]

- Inhibition of Pax/α4 binding (% at 1 μM) ([2]; 1 μM): 11%
Molecule: O=C(O)c1cc2c3c(ccc2[nH]1)NCC3 [Compound 17, H-CDPI-OH]

- Inhibition of Pax/α4 binding (% at 1 μM) ([2]; 1 μM): 6%
Molecule: CC(C)(C)OC(=O)N1CCc2c1ccc1[nH]c(C(=O)O)cc21 [Compound 18, Boc-CDPI-OH]

Molecule: COC(=O)c1cc2c3c(ccc2[nH]1)N(C(=O)c1cc2c4c(ccc2[nH]1)N(C(=O)OC(C)(C)C)CC4)CC3 [Compound 20, Boc-CDPI2-OMe]
- Inhibition of Pax/α4 binding (% at 1 μM) ([2]; 1 μM): 13%

- Inhibition of Pax/α4 binding (% at 1 μM) ([2]; 1 μM): 14%
Molecule: COC(=O)c1cc2c3c(ccc2[nH]1)N(C(=O)c1cc2c4c(ccc2[nH]1)NCC4)CC3 [Compound 21, H-CDPI2-OMe]

- Inhibition of Pax/α4 binding (% at 1 μM) ([2]; 1 μM): 27%
Molecule: O=C(O)c1cc2c3c(ccc2[nH]1)N(C(=O)c1cc2c4c(ccc2[nH]1)NCC4)CC3 [Compound 23, H-CDPI2-OH]

Molecule: COC(=O)c1cc2c3c(ccc2[nH]1)N(C(=O)c1cc2c4c(ccc2[nH]1)N(C(=O)c1cc2c5c(ccc2[nH]1)NCC5)CC4)CC3 [Compound 25, H-CDPI3-OMe]
- pIC50 [2]: 6.52
- inhibition at 1 µM [2, 4]: 73%

Molecule: O=C(O)c1cc2c3c(ccc2[nH]1)N(C(=O)c1cc2c4c(ccc2[nH]1)N(C(=O)c1cc2c5c(ccc2[nH]1)NCC5)CC4)CC3 [Compound 26, H-CDPI3-OH]
- Paxillin/α4 binding inhibition, result in words [2]: only a slight reduction in potency
- inhibition at 1 µM [2, 4]: 68%
- IC50 ([2]; read-out: inhibition of Pax/α4 binding (IC50 in μM)): 0.5 µM

Molecule: Boc-CDPI3-OMe [Compound 24]
- Paxillin/α4 binding inhibition, result in words [2]: substantial loss of activity
- Inhibition of Pax/α4 binding (% at 1 μM) ([2]; 1 μM): 25%

- Inhibition of Pax/α4 binding (% at 1 μM) ([2]; 1 μM): 36%
Molecule: DMABA-CDPI2-OMe [Compound 22]

- Inhibition of Pax/α4 binding (% at 1 μM) ([2]; 1 μM): −3%
Molecule: DMABA-CDPI-OMe [Compound 19]
